From publication PMC12155760, “A cobalamin-dependent pathway of choline demethylation from the human gut acetogen Eubacterium limosum [drawing 1]” (The Journal of Biological Chemistry, 2025)

Key:
MthA = target: T1, MthA (Eubacterium limosum, UniProt A0AAC9QR60); experiment: HPLC, methyl-THF formation; type: biochemical; settings: 5 mM THF, MthB, MthC, RamQ, Ti(III)citrate, ATP, 50 mM phosphocholine, MOPS pH 7.0, 24 °C
T1 construct: gene B2M23_01055
T1 sequence (A0AAC9QR60 1-264): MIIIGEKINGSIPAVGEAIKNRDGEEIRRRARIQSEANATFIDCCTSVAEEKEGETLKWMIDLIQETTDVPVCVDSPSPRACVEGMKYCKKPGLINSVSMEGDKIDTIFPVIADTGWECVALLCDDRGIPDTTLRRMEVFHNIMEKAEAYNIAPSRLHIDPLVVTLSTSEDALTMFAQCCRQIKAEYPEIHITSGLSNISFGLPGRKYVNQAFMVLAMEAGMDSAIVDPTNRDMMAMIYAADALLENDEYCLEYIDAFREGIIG

MthB = experiment: UV/Vis, methyl-Co(III)-MthC formation at […] nm; type: biochemical, Eubacterium limosum; settings: co-substrate 30 μM Co(I)-MthC, RamQ, Ti(III)citrate, 2 mM ATP, MOPS pH 7.2, 37 °C; read-out: apparent KM
purified protein = substrate: C[N+](C)(C)CCO; experiment: purified protein; type: biochemical, Eubacterium limosum; settings: 5 mM ATP, 10 mM MgCl2, 100 mM KCl, glycine-NaOH pH 9.0

## Nc1nc2c(c(=O)[nH]1)N[C@@H](CNc1ccc(C(=O)N[C@@H](CCC(=O)O)C(=O)O)cc1)CN2 [THF]
MthA
  HPLC, methyl-THF formation: the further addition of MthA allowed the methylation of THF with phosphocholine as assayed by HPLC

## C[N+](C)(C)CCOP(=O)([O-])O [phosphocholine]
MthB
  Km: 11.3 ± 1.9 mM

B1: MthK (Eubacterium limosum) (protein)
chain: MVDGKFIEMQTEIMKNYPPANAQALLNIFNAASGMQEYLDNVLAKTRESYLYTQLRDLVENYYDIGTLLDVYQIFGGYINTSFGIYTEKNGKKQTWFVRKYKNGKELESLLFEHSMLKYAKENGFSYGAVPIPAKDGKTYHEVTETTTEGETKSYFAVFNFVGGKAHYDWIPNWANAGVADLTVISAAKSLAEFHNSTRGFDPEGRHGDNIMDNEDITVNEIIRKFPKTLKEYRKSYAEAGFENVYTEYYDANYDYFAKMCERSVIPDVDYDTMVSNVCHCDFHPGNFKYLDNGEVCGSFDYDMAKIDSRLFELGLAIHYCFSSWLSDTNGIINLDRASLFVKTYDEELHKAGGIEPLTDIEKKYLYEVTVQGALYDLGWCSSACVYDSTLDPYEYLFYTQHFVACLKWLEANEAAFRKAFD
Purified protein
  Km: 0.0028 ± 0.0002 mM
  kcat: 13.8 ± 0.28 s⁻¹
